The text below walks through data of patent US8653102B2, “Substituted 2-oxo- and 2-thioxo-dihydroquinoline-3-carboxamides as KCNQ2/3 modulators” (Gruenenthal GmbH, priority 2010, dated 2014).

This experiment addresses T1, KCNQ2/3 channels (Homo sapiens, UniProt O43525+O43526).
T1 construct: expressed in transfected cells; host or cells: CHO-K1 cells kept under selection antibiotics
The experiment is described as follows: Fluorescence assay using a voltage sensitive dye (fluorimetry). The experiment is classed as cell-based. The procedure: Pharmacological Experiments Method I. Fluorescence Assay Using a Voltage Sensitive Dye (Fluorimetry)
[…] CHO-K1 cells expressing KCNQ2/3 channels are cultivated adherently at 37° C., 5% CO2 and 95% humidity in cell culture bottles (e.g. 80 cm^2 TC flasks, Nunc) with DMEM-high glucose (Sigma Aldrich, D7777) including 10% FCS (PAN Biotech, e.g. 3302-P270521) or alternatively MEM Alpha Medium (1×, liquid, Invitrogen, #22571), 10% fetal calf serum (FCS) (Invitrogen, #10270-106, heat-inactivated) and the necessary selection antibiotics.
Before being sown out for the measurements, the cells are washed with 1×DPBS buffer Ca^2+/Mg^2+-free (e.g. Invitrogen, #14190-094) and detached from the bottom of the culture vessel by using Accutase (PAA Laboratories, #L11-007) (incubation with Accutase for 15 min at 37° C.). The cell number is determined using a CASY™ cell counter (TCC, Schärfe System). Depending on the optimal density for each individual cell line, 20,000-30,000 cells/well/100 μl are seeded onto 96-well Corning™ CellBIND™ assay plates (Flat Clear Bottom Black Polystyrene Microplates, #3340). Freshly seeded cells are then left to settle for one hour at room temperature, followed by incubation for 24 hours at 37° C., 5% CO2 and 95% humidity.
The voltage-sensitive fluorescent dye from the Membrane Potential Assay Kit (Red™ Bulk format part R8123 for FLIPR, MDS Analytical Technologies™) is prepared by dissolving the contents of one vessel Membrane Potential Assay Kit Red Component A in 200 ml of extracellular buffer (ES buffer, 120 mM NaCl, 1 mM KCl, 10 mM HEPES, 2 mM CaCl2, 2 mM MgCl2, 10 mM glucose; pH 7.4). After removal of the nutrient medium, the cells are washed once with 200 μl of ES buffer, then loaded for 45 min at room temperature in 100 μl of dye solution in the dark.
Fluorescence measurements are carried out in a BMG Labtech FLUOstar™, BMG Labtech NOVOstar™ or BMG Labtech POLARstar™ instrument (525 nm excitation, 560 nm emission, Bottom Read mode). After incubation with the dye, 50 μl of the test substances in the desired concentrations, or 50 μl of ES buffer for control purposes, are applied to the wells of the assay plate and incubated for 30 min at room temperature while being shielded from light. The fluorescence intensity of the dye is then measured for 5 min and the fluorescence value F1 of each well is thus determined at a given, constant time. 15 μl of a KCl solution are then added to each well (final concentration of potassium ions 92 mM). The change in fluorescence intensity is subsequently monitored until all the relevant values have been obtained (mainly 5-30 min). At a given time post KCl application, a fluorescence value F2 is determined, in this case at the time of the fluorescence peak.
For calculation, the fluorescence intensity F2 is corrected for the fluorescence intensity F1, and the activity (ΔF/F) of the target compound on the potassium channel is determined as follows:
In order to determine whether a substance has agonistic activity,
A substance has an agonistic activity on the potassium channel if
[formula] increases dose dependently.
Calculations of EC50 and IC50 values are carried out with the aid of ‘Prism v4.0’ software (GraphPad Software™).

[1] abbreviates: CHO-K1 cells expressing KCNQ2/3 channels.
[2] abbreviates: CHO-K1 cells expressing KCNQ2/3 channels, relative to retigabine (RTG) = 100%, read-out: Fluorimetry % efficacy (RTG = 100%).

SMILES strings stand for the structures. Read-outs that look alike come from different tables or passages of the source.

In general, EC50 refers to the concentration at which the effect is half-maximal. Low readings indicate an effect from little substance, high ones a need for much substance. The compound `Cc1c(C(=O)NCc2cccc(F)c2)c(=O)n(C)c2cc(F)ccc12` [Example 34, 7-fluoro-N-[(3-fluorophenyl)-methyl]-1,4-dimethyl-2-oxo-1H-quinoline-3-carboxylic acid amide] had an EC50 under setting [1] of 3140 nM. In addition, the Emax under setting [2] was determined as 105%. Compound `Cc1c(C(=O)NCc2cccc(F)c2)c(=O)n(CCO)c2cc(C(F)(F)F)ccc12` [Example 38, N-[(3-fluorophenyl)-methyl]-1-(2-hydroxy-ethyl)-4-methyl-2-oxo-7-(trifluoromethyl)-1H-quinoline-3-carboxylic acid amide] had an EC50 under setting [1] of 1830 nM. Moreover, under setting [2], the Emax turned out to be 160%. Take `Cc1c(C(=O)NCc2cccc(F)c2)c(=O)n(CCCC(C)C)c2cc(C(F)(F)F)ccc12` [Example 13, N-[(3-fluorophenyl)-methyl]-4-methyl-1-(4-methyl-pentyl)-2-oxo-7-(trifluoromethyl)-1H-quinoline-3-carboxylic acid amide]: the Emax under setting [2] came to 3%.

For the compound `COCCOCCn1c(=O)c(C(=O)NCc2cccc(F)c2)c(C)c2ccc(C(F)(F)F)cc21` [Example 15, N-[(3-fluorophenyl)-methyl]-1-[2-(2-methoxy-ethoxy)-ethyl]-4-methyl-2-oxo-7-(trifluoromethyl)-1H-quinoline-3-carboxylic acid amide], the EC50 under setting [1] came to 2020 nM. Also, the Emax under setting [2] turned out to be 78%. In turn, `COc1c(C(=O)NCc2cccc(F)c2)c(=O)n(C)c2cc(C(F)(F)F)ccc12` [Example 45, N-[(3-fluorophenyl)-methyl]-4-methoxy-1-methyl-2-oxo-7-(trifluoromethyl)-1H-quinoline-3-carboxylic acid amide] gave an EC50 under setting [1] of 215 nM. For the same compound, the Emax under setting [2] worked out at 190%. On to `CCC(Cn1c(=O)c(C(=O)NCc2cccc(F)c2)c(C)c2ccc(C(F)(F)F)cc21)OC` (stereo not shown) [Example 32, N-[(3-fluorophenyl)-methyl]-1-(2-methoxy-butyl)-4-methyl-2-oxo-7-(trifluoromethyl)-1H-quinoline-3-carboxylic acid amide], for which, under setting [2], the Emax came to 26%. As for `COCCCn1c(=O)c(C(=O)NCc2cccc(F)c2)c(C)c2ccc(C(F)(F)F)cc21` [Example 14, N-[(3-fluorophenyl)-methyl]-1-(3-methoxy-propyl)-4-methyl-2-oxo-7-(trifluoromethyl)-1H-quinoline-3-carboxylic acid amide], under setting [1], the EC50 turned out to be 992 nM. Under setting [2], the Emax was 61%. The like results for `CCCCn1c(=O)c(C(=O)NCc2cccc(F)c2)c(C)c2ccc(C(F)(F)F)cc21` [Example 2, 1-butyl-N-[(3-fluorophenyl)-methyl]-4-methyl-2-oxo-7-(trifluoromethyl)-1H-quinoline-3-carboxylic acid amide] were, in that order, 235 nM and 90%. The corresponding values for `CCn1c(=O)c(C(=O)NCc2cccc(F)c2)c(C)c2ccc(C(F)(F)F)cc21` [Example 5, 1-ethyl-N-[(3-fluorophenyl)-methyl]-4-methyl-2-oxo-7-(trifluoromethyl)-1H-quinoline-3-carboxylic acid amide] are 381 nM and 173%. Under setting [1], `Cc1c(C(=O)NCc2cccc(F)c2)c(=O)n(C)c2cc(Cl)ccc12` [Example 37, 7-chloro-N-[(3-fluorophenyl)-methyl]-1,4-dimethyl-2-oxo-1H-quinoline-3-carboxylic acid amide] returned an EC50 of 729 nM. Moreover, under setting [2], the Emax stood at 139%. Turning to `Cc1c(C(=O)NCc2cccc(F)c2)c(=O)n(C)c2cc(C#N)ccc12` [Example 20, 7-cyano-N-[(3-fluorophenyl)-methyl]-1,4-dimethyl-2-oxo-1H-quinoline-3-carboxylic acid amide], a half-maximal response under setting [1] (EC50) required 1270 nM. The Emax under setting [2] was determined as 143%. Consider `Cc1c(C(=O)NCc2cccc(F)c2)c(=O)n(C2CCOCC2)c2cc(C(F)(F)F)ccc12` [Example 44, N-[(3-fluorophenyl)-methyl]-4-methyl-2-oxo-1-tetrahydro-pyran-4-yl-7-(trifluoromethyl)-1H-quinoline-3-carboxylic acid amide], for which, under setting [2], the Emax was found to be 36%. Still for that read-out and setting: the figure for `COCCn1c(=O)c(C(=O)NCc2cccc(F)c2)c(C)c2ccccc21` [Example 10, N-[(3-fluorophenyl)-methyl]-1-(2-methoxy-ethyl)-4-methyl-2-oxo-1H-quinoline-3-carboxylic acid amide] is 22%. On to `COCCn1c(=O)c(C(=O)NCCCC(C)(C)C)c(C)c2ccc(C(F)(F)F)cc21` [Example 24, N-(4,4-dimethyl-pentyl)-1-(2-methoxy-ethyl)-4-methyl-2-oxo-7-(trifluoromethyl)-1H-quinoline-3-carboxylic acid amide], for which, under setting [1], the response was half-maximal at 167 nM (EC50). In addition, under setting [2], the Emax was 231%. The corresponding values for `CCn1c(=O)c(C(=O)NCc2ccc(F)cc2)c(C)c2ccc(C(F)(F)F)cc21` [Example 8, 1-ethyl-N-[(4-fluorophenyl)-methyl]-4-methyl-2-oxo-7-(trifluoromethyl)-1H-quinoline-3-carboxylic acid amide] are 401 nM and 175%. The corresponding values for `Cc1c(C(=O)NCc2ccc(F)cc2)c(=S)n(C)c2cc(C(F)(F)F)ccc12` [Example 36, N-[(4-fluorophenyl)-methyl]-1,4-dimethyl-2-thioxo-7-(trifluoromethyl)-1H-quinoline-3-carboxylic acid amide] are 126 nM and 99%. Consider `Cc1c(C(=O)NCc2cccc(F)c2)c(=O)n(C(C)C)c2cc(C(F)(F)F)ccc12` [Example 40, N-[(3-fluorophenyl)-methyl]-1-isopropyl-4-methyl-2-oxo-7-(trifluoromethyl)-1H-quinoline-3-carboxylic acid amide], for which the EC50 under setting [1] amounted to 75 nM. Moreover, the Emax under setting [2] amounted to 145%.

As for `Cc1c(C(=O)NCc2cccc(F)c2)c(=O)n(C)c2ccccc12` [Example 9, N-[(3-fluorophenyl)-methyl]-1,4-dimethyl-2-oxo-1H-quinoline-3-carboxylic acid amide], the response under setting [1] was half-maximal at 5690 nM (EC50). Moreover, under setting [2], the Emax was 63%. Take `Cc1c(C(=O)N(C)c2cccc(F)c2)c(=O)n(CC(=O)O)c2cc(C(F)(F)F)ccc12` [Example 28, 2-[3-[(3-fluorophenyl)-methyl-carbamoyl]-4-methyl-2-oxo-7-(trifluoromethyl)-1H-quinolin-1-yl]-acetic acid]: the Emax under setting [2] stood at 16%. With `COCCn1c(=O)c(C(=O)NCc2cccc(F)c2)c(C)c2ccc(C#N)cc21` [Example 22, 7-cyano-N-[(3-fluorophenyl)-methyl]-1-(2-methoxy-ethyl)-4-methyl-2-oxo-1H-quinoline-3-carboxylic acid amide], under setting [1], the midpoint of the response, the EC50, lay at 3140 nM. Moreover, the Emax under setting [2] amounted to 102%. As for `Cc1c(C(=O)NCCCC(C)(C)C)c(=O)n(C)c2cc(C(F)(F)F)ccc12` [Example 25, N-(4,4-dimethyl-pentyl)-1,4-dimethyl-2-oxo-7-(trifluoromethyl)-1H-quinoline-3-carboxylic acid amide], the EC50 under setting [1] worked out at 68 nM. Moreover, under setting [2], the Emax is 258%. On to `COCC(COC)n1c(=O)c(C(=O)NCc2cccc(F)c2)c(C)c2ccc(C(F)(F)F)cc21` [Example 31, N-[(3-Fluorophenyl)-methyl]-1-[2-methoxy-1-(methoxymethyl)-ethyl]-4-methyl-2-oxo-7-(trifluoromethyl)-1H-quinoline-3-carboxylic acid amide], for which, under “CHO-K1, read-out: Fluorimetry % efficacy (RTG = 100%)”, the Emax came to 46%. Besides, under setting [1], the EC50 worked out at 80 nM. With `Cc1c(C(=O)N(C)c2cccc(F)c2)c(=O)n(CCC(=O)O)c2cc(C(F)(F)F)ccc12` [Example 29, 3-[3-[(3-fluorophenyl)-methyl-carbamoyl]-4-methyl-2-oxo-7-(trifluoromethyl)-1H-quinolin-1-yl]-propionic acid], the Emax under setting [2] was determined as 6%.
